Measurements: a melting point compilation (Tetko et al.; mined from patent text by program, amines drawn as free bases though some values may be those of a salt)

Compound	melting point
O=C1NCN(c2ccccc2)C12CCCCC2	193 to 195 °C
NC(=O)c1ccc(F)c2c1OCC(N(CCCc1c[nH]c3c(F)cc(F)cc13)C1CCC1)C2 (stereo not given)	136 °C
C=C1C(=C)C2OC1c1cc3c(OC)ccc(OC)c3cc12	205 to 206 °C
O=P(O)(O)Cc1ccc(C(F)(F)F)cc1	163 to 164 °C
O=C([C@H]1CC[C@H](Nc2ncc3ncnc(Nc4ccc(F)c(Cl)c4)c3n2)CC1)N1CCOCC1	221 to 225 °C
CO[C@@H](C(=O)N[C@H]1CC[C@@H](OC(=O)C2CCCC2)CNC1=O)[C@H](O)[C@@H](O)[C@H](O)/C=C/C(C)(C)C	75 to 76 °C
CC(C)N1CCN(c2ccc(-c3[nH]nc4c3C(=O)c3c(NC(=O)NN5CCN(C)CC5)cccc3-4)cc2)CC1	272 °C
C[C@@H]([C@@H](O)c1ccc(OCc2ccccc2)cc1)N1CCC(O)(c2ccccc2)CC1	158 to 161 °C
CC(C)(C)OC(=O)[C@H]1CCCN1CC(=O)N1CCC[C@@H]1C(=O)OC(C)(C)C	75 to 76 °C
Cc1ccc(S(=O)(=O)n2cc3c(c2)SC(=C2SC(SCCc4ccc([N+](=O)[O-])cc4)=C(SCCc4ccc([N+](=O)[O-])cc4)S2)S3)cc1	143 to 144 °C
c1cc(-c2cccc3ncoc23)c2ocnc2c1	226 to 228 °C
O=c1c(Br)c(OCc2ccccc2)ccn1Cc1ccc(OCc2ccccc2)cc1	138 to 144 °C
CCOc1cccc(-c2nn(C(C)c3oc4ccccc4c(=O)c3-c3cccc(F)c3)c3ncnc(N)c23)c1 (stereo not given)	162 to 165 °C
S=c1[nH]c2c(n1Nc1cccc(Cl)c1)CCCC2	148 °C
CCCCCCc1ccc(-n2c(-c3ccc(C)cc3)ccc2-c2ccc(C)cc2)cc1	147 to 148 °C
C1=C(c2cccs2)NN=C(c2cccs2)C1c1cccs1 (stereo not given)	168 °C
Clc1ncc(-c2ccco2)cn1	134 to 136 °C
Cc1ccc(Cc2cnc(NCCCN(Cc3ccc(Cl)cc3)c3ccccn3)[nH]c2=O)cn1	88 to 92 °C
OC1CSC(Oc2cccc(-c3cccc(Cl)n3)c2)C(O)C1O (stereo not given)	180 to 222 °C
CNS(=O)(=O)c1sccc1CCl	52 to 53 °C
N#Cc1cc([N+](=O)[O-])ccc1Oc1ccc(Cl)cc1	163 to 164 °C
CC(=O)NC[C@H]1CN(c2cc(F)c(N3CCC(n4nnc(N5CCNCC5)n4)CC3)c(F)c2)C(=O)O1	180 to 185 °C

Compound	melting point
Nc1cc(Cl)c(Br)cc1[N+](=O)[O-]	185 to 195 °C
O=C(Nc1cc(NC(=O)C2CCCCC2)cc(NC(=O)C2CCCCC2)c1)C1CCCCC1	286 °C
CC(C)CCCC(C)C1CCC2C3CC=C4CC(OCCCCCCS)CCC4(C)C3CCC12C (stereo not given)	89 to 90 °C
CC(C)(C)c1ccc(NS(=O)(=O)c2ccc(N3CCNC3=O)cc2)cc1	241 to 243 °C
O=C(OCC(Cl)(Cl)Cl)N1C2CCC1CC(Sc1ccccc1)C2 (stereo not given)	83 to 84.5 °C
CC(=O)OS(=O)(=O)OC(C)=O	228 °C
Cc1c(O)c(C)c(Cc2cc(C(C)(C)C)c(O)c(C(C)(C)C)c2)c(C)c1Cc1cc(C(C)(C)C)c(O)c(C(C)(C)C)c1	204 °C
O=C1NC(Cc2ccccc2)C(C(=O)O)O1 (stereo not given)	172 to 174 °C
Cc1ccc(S(=O)(=O)OCc2c([N+](=O)[O-])cccc2[N+](=O)[O-])cc1	98 to 99 °C
CCCn1c(=O)[nH]c2c(C)ccc(OCC(O)CN3CCC(COc4ccccc4)CC3)c21 (stereo not given)	91 to 93 °C
COc1ccc([C@@H]2Sc3cc(Cc4ccc(F)cc4)ccc3NC(=O)[C@@H]2O)cc1	216 to 218 °C
COc1ccc(-c2nc(Sc3ccccc3F)[nH]c2-c2ccc(OC)cc2)cc1	195 °C
Fc1ccc(-c2nn3c(c2-c2ccncc2)NNCC3)cc1	233 to 235 °C
CN1CC2Cc3ccc(Cl)cc3C(=O)C2C1 (stereo not given)	148 to 150 °C
O=CNc1nc(S)n[nH]1	260 to 262 °C
CC(O)CC1NC(=O)c2sccc2-n2cccc21 (stereo not given)	170 °C
CC1(C)SC(=N)NC1=O	252 to 254 °C
O=C(CN1C2=NCCN2c2ccccc21)c1ccccc1	178 to 179 °C
CC(C)(c1ccccc1)C(Sc1ccc(Cl)cc1)n1ccnc1 (stereo not given)	77 to 79 °C
OC(c1ccccc1)c1cc2ccnc(N(Cc3ccccc3)Cc3ccccc3)c2[nH]1 (stereo not given)	53 to 61 °C
CCC(O)(c1ccc(F)cc1)c1ccc(OCCCN2CCN(Cc3ccccc3)CC2)cc1 (stereo not given)	119 to 121 °C
O=C(Nc1ccc(Br)c2ccccc12)c1cc(F)cc(N2CCOCC2)c1	187 to 189 °C

Continued, values first:

melting point	Compound
132 to 135 °C	CC(=N)Nc1cccc(C(C)O)c1 (stereo not given)
103 to 105 °C	C[Si](C)(C)C#CCn1nc(-c2ccc(F)c(Br)c2)ncc1=O
125 to 127 °C	CN(NC(=O)OCc1ccccc1)C(=O)c1cc(OCc2ccccc2)c(OCc2ccccc2)c(CNC(=O)OC(C)(C)C)n1
164 °C	COCCC(=O)N[C@H]1CC[C@H](CCN2CCN(c3ncc(C)c4c3CCO4)CC2)CC1
149 to 153 °C	CC(=O)OCC1CC(=O)NN=C1c1ccc2c(c1)CCC(=O)N2C (stereo not given)
59 to 60 °C	COC(=O)[C@H](C)OC(=O)c1cc(-n2c(=O)cc(C(F)(F)F)n(C)c2=O)ccc1Cl
118 to 120 °C	N#Cc1c(OCCO)nc(CCO)nc1N1CCc2ccccc2CC1
59 to 62 °C	CCOC(=O)Cc1c2cc(F)ccc2n2c(-c3ccc(SC)cc3)nccc12
131 to 134 °C	CCCCc1cccc2c3c([nH]c12)C(CC)(CC(=O)O)CCC3 (stereo not given)
134 to 137 °C	CN1CC(=O)N(C)C1=NC(=O)Nc1cccc(Cl)c1
217 to 219 °C	CC[C@@H]1CN(c2c(F)c(N)c3c(=O)c(C(=O)O)cn(C4CC4)c3c2OC)CC[C@H]1O (relative stereo)
82 to 90 °C	CCNC(=O)Nc1nc2nc(NCCCN3CCN(C)CC3)ncc2cc1-c1c(Cl)cccc1Cl
262 to 265 °C	CCCn1c(=O)c2c(NC)n[nH]c2n(Cc2ccc(F)cc2)c1=O
143 °C	Cc1cc(C)c2c(c1)nc(NC1CCN(CCO)CC1)n2Cc1nc(C)ccc1O
184 to 185 °C	Clc1ccc(-c2nc3cccnc3n2Cc2ncc[nH]2)cc1
148 to 151 °C	COC(=O)c1cn(-c2ccc(Oc3ccc(C)cc3O)cc2)nn1
145 to 147 °C	CCc1ccc(S(C)(=O)=O)c(C(=O)c2ccc(F)cc2)c1
149 to 150 °C	COC(=O)c1ccc(-c2nc(-c3cc(Cl)sc3Cl)cs2)cc1
128 to 129 °C	CCOc1ccc(C(=O)c2csc(-c3ccc(OCC)c(OCC)c3)n2)cc1OCC

melting point	Compound
143 to 147 °C	CCN(CC)C(=O)c1cccc2c(=O)c(C)c(-c3ccc(OC)cc3)oc12
111 to 113 °C	c1ccc(Cc2nc3cnc4ccccc4c3s2)cc1
119 to 120 °C	Nc1nc(SCc2ccccn2)nc(Cl)c1Br
100 to 105 °C	Nc1ncnc2sc(Cc3ccccc3)c(-c3ccc(NS(=O)(=O)c4ccccc4)cc3)c12
182 °C	COc1cc(C)c(C(=O)c2c(Cl)cccc2Cl)c(O)c1O
169 to 170 °C	O=C(Nc1ccccn1)c1ccc(OC(F)F)c2oc3ccc(C(F)(F)F)cc3c12
52 to 54 °C	CCOC(=O)Cc1sc(Sc2cc(C(=O)OC)ccn2)nc1C
220 to 221 °C	COC(=O)c1cc(NC(C)=O)cc(NC(C)=O)c1
238 to 239 °C	Cc1cc(C(=O)c2ccc(Br)cc2)c(O)cc1Cl
160 to 161 °C	CCOc1nc(C(F)(F)F)cc(=O)n1-c1cc(O)c(Br)cc1F
90 °C	O=[N+]([O-])c1cc(Cl)c(OCCCO)c([N+](=O)[O-])c1OCCCO
144 to 146 °C	CCOc1ccc2[nH]ccc2c1
140 to 141 °C	CCN(CC)C(=O)c1ccc2ccccc2c1-c1ccc(N(C)C)cc1
169 to 170 °C	Cc1c(CCC(=O)O)c2cc(Br)ccc2n1Cc1ccc(Br)cc1
91 to 92 °C	CC(C)Cn1c(-c2c(F)cccc2F)cnc(-n2cccn2)c1=O
139 to 141 °C	Nc1nc(NCCNc2ccccc2)nc(-c2cc(Cl)ccc2Cl)n1
135 to 136 °C	Cc1onc(C(F)(F)F)c1CS(=O)(=O)C1=NOC(C)(C)C1
77 to 78 °C	CCOC(=O)c1nn(-c2cccc(C(F)(F)F)c2)c2c1CCCC2
172 to 174 °C	Cc1ccc2[nH]c(C(=O)OC(C)C)c(Sc3ccc(Cl)cc3)c2c1

melting point	Compound
103 to 104 °C	Brc1ccc2nc(COc3ccc(CCCn4ccnc4)cc3)cn2c1
121 to 123 °C	COc1ccc(-n2c(C)nc3ccccc32)cc1
203 to 204 °C	COc1cccc(Nc2ncc3cc(-c4c(Cl)cccc4Cl)c(=O)n(C)c3n2)c1
163 to 165 °C	O=C(c1ccccc1)c1cnn2c(-c3ccccc3)ccnc12
224 °C	O=C(Nc1ccc2ccc(Cl)nc2n1)c1cccc(Br)c1
124 to 125 °C	NC(=CC(=O)c1ccncc1)C1CC1
102 to 104 °C	CC(C)(CO)Nc1cc(Cl)ccc1[N+](=O)[O-]
78 to 80 °C	CCOC(=O)c1c(S(N)=O)c2ccccc2n1CC (stereo not given)
129 to 130 °C	COC(=O)C=Cc1ccc(OCc2nc(-c3ccco3)oc2C)c(OC)c1
73 to 75 °C	CS(=O)(=O)ON=C(Cl)c1ccc(Cl)c(Cl)c1
96 to 97 °C	COC(=O)c1cncc(NC(=O)C(C)CS)c1 (stereo not given)
190 to 192 °C	CON=C(Nc1nc(C)cc(C)n1)NS(=O)(=O)c1ccccc1-c1ccccc1
131 to 132 °C	CC1=C(C(=O)O)C(c2cccc([N+](=O)[O-])c2)C(C(=O)OCCC#N)=C(C)N1 (stereo not given)
191 to 193 °C	NC(=O)c1cnn(-c2ccc(Cl)cc2Cl)c1C(F)(F)F
82 to 85 °C	CCOC(=O)C(=O)c1csc(NC(c2ccccc2)c2ccccc2)n1
195 to 196 °C	CC(=O)Nc1ccc2c(c1)SC1(CC1)C2=O
80 to 81 °C	CC[C@H](C)[C@H](NC(=O)[C@@H]1CCCN1CC(=O)[C@H](Cc1ccccc1)NC(=O)OCc1ccccc1)C(=O)NCC(C)C
146 to 149 °C	CC(=O)Nc1cc(Cl)ccc1OCC#N
